Results published in patent US9364459B2, “3-(indolyl)- or 3-(azaindolyl)- 4-arylmaleimide derivatives for use in the treatment of colon and gastric adenocarcinoma” (Johannes Gutenberg-Universität Mainz, priority 2009, dated 2016).

Experiments:
GSK-3β = GSK-3β (Homo sapiens (Human), UniProt P49841); assay: GSK-3β kinase inhibition assay (Millipore IC50Profiler); format: biochemical; details: for GSK-3β IC50 values, in words: Table 2
From the text: (§1) GSK-3β, VEGFR-2, FLT-3 Kinase Inhibition Assays
(§2) Detailed protocols can be found at: www.millipore.com/drugdiscovery/dd3/assayprotocols.

HT-29 = assay: Nicoletti apoptosis assay in HT-29 cells; format: cell-based, human; details: for Sub-G1 Fraction: HT-29
Description: Nicoletti Apoptosis Assay by Cell Cycle Analysis
Cancer cells were transferred to 12-well flat-bottomed plates. […] Subsequently, cells were incubated in 1 ml medium containing various concentrations of test compounds at 37° C. with 5% CO2. After incubation the cells were washed with PBS, trypsinized, pelleted and mixed with PI buffer (containing 0.1% sodium citrate, 0.1% triton X-100, […] propidium iodide (PI)) and incubated for 1 hour at 4° C. Cell cycle sub-G1 fraction analysis was performed as described previously (Nicoletti, I. et al. (1991) J. Immunol. Methods 139, 271-279) using a flow cytometer (BD FACS Calibur™, BD Biosciences, Heidelberg, Germany). Each experiment was done in triplicate.

FLT-3 = FLT-3 (Homo sapiens (Human), UniProt P36888); assay: FLT-3 kinase inhibition assay (Millipore IC50Profiler); format: biochemical
Chain of FLT-3 (P36888 27-993): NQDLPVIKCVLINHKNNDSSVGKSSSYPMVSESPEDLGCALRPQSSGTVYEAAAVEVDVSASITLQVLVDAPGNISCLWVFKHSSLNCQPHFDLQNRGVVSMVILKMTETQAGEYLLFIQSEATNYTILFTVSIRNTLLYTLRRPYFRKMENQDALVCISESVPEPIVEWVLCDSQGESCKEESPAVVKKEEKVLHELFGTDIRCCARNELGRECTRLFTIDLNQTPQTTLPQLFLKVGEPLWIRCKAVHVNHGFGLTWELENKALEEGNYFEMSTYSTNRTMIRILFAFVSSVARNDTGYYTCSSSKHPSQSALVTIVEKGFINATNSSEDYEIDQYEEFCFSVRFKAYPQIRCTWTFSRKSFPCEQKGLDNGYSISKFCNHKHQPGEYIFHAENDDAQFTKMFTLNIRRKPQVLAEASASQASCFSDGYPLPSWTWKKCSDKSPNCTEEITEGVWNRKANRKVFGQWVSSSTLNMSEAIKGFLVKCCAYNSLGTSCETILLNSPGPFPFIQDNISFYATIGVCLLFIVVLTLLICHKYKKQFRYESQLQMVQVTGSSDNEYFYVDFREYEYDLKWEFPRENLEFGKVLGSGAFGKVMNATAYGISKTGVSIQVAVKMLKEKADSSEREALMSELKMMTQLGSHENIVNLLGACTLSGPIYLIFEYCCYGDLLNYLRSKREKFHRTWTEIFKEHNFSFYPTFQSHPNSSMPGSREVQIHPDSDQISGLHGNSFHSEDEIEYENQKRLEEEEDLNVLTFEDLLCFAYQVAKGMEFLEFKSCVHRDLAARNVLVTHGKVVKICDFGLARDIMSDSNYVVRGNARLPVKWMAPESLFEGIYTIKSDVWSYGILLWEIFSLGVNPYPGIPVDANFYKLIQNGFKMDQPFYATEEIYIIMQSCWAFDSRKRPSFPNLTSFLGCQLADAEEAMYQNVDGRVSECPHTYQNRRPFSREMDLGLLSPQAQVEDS
Description: as §1
The effect of test compounds on the activity of the protein kinases GSK-3β, VEGFR-2 and FLT-3 was evaluated based on half maximal inhibitory concentration (IC50) values determined by Millipore UK Ltd; Gemini Crescent; Dundee Technology Park; Dundee DD2 1SW; UK (IC50Profiler). Detailed protocols can be found at: www.millipore.com/drugdiscovery/dd3/assayprotocols.

VEGFR-2 = VEGFR-2 (Homo sapiens (Human), UniProt P35968); assay: VEGFR-2 kinase inhibition assay (Millipore IC50Profiler); format: biochemical
Chain of VEGFR-2 (P35968 20-1356): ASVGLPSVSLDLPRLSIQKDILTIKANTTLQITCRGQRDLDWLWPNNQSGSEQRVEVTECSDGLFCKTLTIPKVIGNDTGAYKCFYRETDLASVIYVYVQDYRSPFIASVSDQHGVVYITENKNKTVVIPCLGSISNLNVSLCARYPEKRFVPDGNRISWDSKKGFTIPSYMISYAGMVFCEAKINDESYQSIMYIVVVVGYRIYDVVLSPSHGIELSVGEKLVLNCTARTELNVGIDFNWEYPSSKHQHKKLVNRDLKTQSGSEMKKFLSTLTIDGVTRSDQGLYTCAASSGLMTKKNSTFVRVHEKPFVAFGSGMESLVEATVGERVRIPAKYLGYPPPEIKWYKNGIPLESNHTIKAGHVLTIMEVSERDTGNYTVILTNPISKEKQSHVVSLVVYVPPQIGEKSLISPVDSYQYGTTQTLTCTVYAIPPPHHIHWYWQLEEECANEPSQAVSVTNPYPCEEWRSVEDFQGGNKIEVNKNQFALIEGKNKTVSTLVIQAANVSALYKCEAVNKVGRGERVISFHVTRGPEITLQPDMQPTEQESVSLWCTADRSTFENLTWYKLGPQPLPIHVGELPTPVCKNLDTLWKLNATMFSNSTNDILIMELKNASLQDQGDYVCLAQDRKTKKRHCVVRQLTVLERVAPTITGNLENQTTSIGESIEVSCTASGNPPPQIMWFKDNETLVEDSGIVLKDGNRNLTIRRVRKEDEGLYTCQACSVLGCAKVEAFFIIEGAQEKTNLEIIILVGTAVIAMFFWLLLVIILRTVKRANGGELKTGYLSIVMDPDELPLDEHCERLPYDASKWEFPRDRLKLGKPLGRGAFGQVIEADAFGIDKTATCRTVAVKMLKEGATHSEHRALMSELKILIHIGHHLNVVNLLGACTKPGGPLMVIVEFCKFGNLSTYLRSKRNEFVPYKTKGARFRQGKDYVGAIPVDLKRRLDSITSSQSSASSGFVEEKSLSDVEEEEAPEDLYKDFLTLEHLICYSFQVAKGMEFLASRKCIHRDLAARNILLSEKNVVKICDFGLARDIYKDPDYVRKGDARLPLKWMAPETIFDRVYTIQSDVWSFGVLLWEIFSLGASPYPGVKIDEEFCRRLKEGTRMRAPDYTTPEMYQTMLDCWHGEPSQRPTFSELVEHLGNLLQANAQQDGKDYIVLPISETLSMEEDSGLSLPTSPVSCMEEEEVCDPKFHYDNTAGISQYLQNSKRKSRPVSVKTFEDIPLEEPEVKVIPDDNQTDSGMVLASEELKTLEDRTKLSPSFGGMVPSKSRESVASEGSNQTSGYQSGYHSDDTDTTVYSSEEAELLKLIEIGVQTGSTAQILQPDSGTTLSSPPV
From the text: as §1, §2

[1] = Table 8, 7.9 μM test compound alone, drug-free control 3.4 ± 0.9%
[2] = Table 8, 7.9 μM test compound plus 1.18 μM irinotecan

Chain of GSK-3β (P49841 whole entry): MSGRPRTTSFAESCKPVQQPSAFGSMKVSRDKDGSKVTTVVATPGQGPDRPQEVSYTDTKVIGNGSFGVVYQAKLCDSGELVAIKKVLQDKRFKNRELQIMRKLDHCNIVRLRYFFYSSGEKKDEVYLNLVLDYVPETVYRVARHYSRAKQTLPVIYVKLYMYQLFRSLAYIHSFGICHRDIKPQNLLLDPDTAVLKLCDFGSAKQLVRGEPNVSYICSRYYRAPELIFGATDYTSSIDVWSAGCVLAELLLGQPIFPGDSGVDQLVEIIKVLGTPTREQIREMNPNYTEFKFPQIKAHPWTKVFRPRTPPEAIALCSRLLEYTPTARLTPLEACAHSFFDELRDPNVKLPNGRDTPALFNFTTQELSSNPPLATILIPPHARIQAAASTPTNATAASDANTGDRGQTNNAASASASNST

| SMILES | IC50 (GSK-3β) [nM] | GSK-3β IC50 values, in words (GSK-3β) | IC50 (FLT-3) [nM] | FLT-3 inhibition, in words (FLT-3; Table 2) | IC50 (VEGFR-2) [nM] | melting point [°C] | Sub-G1 Fraction (HT-29; [1]) [%] | Sub-G1 Fraction (HT-29; [2]) [%] | Activity in combination with irinotecan relative to compound A, in words (HT-29; HT-29 cells, combination with irinotecan) | Sub-G1 Fraction (HT-29; Table 9, 5 μM sunitinib plus 1.18 μM Irinotecan, 7 days) [%] | Sub-G1 Fraction (HT-29; Table 9, single-agent treatment, 5 μM sunitinib, 7 days) [%] | Sub-G1 Fraction (HT-29; Table 9, 10 μM vandetanib plus 1.18 μM Irinotecan, 7 days) [%] | Sub-G1 Fraction (HT-29; Table 9, single-agent treatment, 10 μM vandetanib, 7 days) [%] |
| --- | --- | --- | --- | --- | --- | --- | --- | --- | --- | --- | --- | --- | --- |
| COc1cc(C2=C(c3cn(CCN)c4ccccc34)C(=O)NC2=O)cc(OC)c1OC.Cl [F, 3-(1-[2-Ammonioethyl]-1H-indol-3-yl)-4-(3,4,5-trimethoxyphenyl)-maleinimide-chloride] | 195 | low nanomolar range | 227 | most significantly inhibited | 1880 | – | 5.69 ± 0.69 | 51.00 ± 0.56 | – | – | – | – | – |
| COc1cc(C2=C(c3cn(CCCN(C)C)c4ccccc34)C(=O)NC2=O)cc(OC)c1OC [K, 3-{1-[3-(Dimethylamino)propyl]-1H-indol-3-yl}-4-(3,4,5-trimethoxyphenyl) maleinimide] | > 1000 | – | 1530 | – | > 10000 | – | 3.17 ± 0.86 | 50.28 ± 1.31 | – | – | – | – | – |
| CCN(CC)CCNC(=O)c1c(C)[nH]c(/C=C2\C(=O)Nc3ccc(F)cc32)c1C [sunitinib, reference compound] | – | – | – | – | – | – | – | – | – | 24.5 ± 1.2 | 11.8 ± 1.0 | – | – |
| COc1cc2c(Nc3ccc(Br)cc3F)ncnc2cc1OCC1CCN(C)CC1 [vandetanib, reference compound] | – | – | – | – | – | – | – | – | – | – | – | 35.2 ± 0.4 | 11.1 ± 1.9 |

Further lines, with some results ahead:

| IC50 (GSK-3β) [nM] | GSK-3β IC50 values, in words (GSK-3β) | IC50 (FLT-3) [nM] | FLT-3 inhibition, in words (FLT-3; Table 2) | IC50 (VEGFR-2) [nM] | melting point [°C] | SMILES | Sub-G1 Fraction (HT-29; [1]) [%] | Sub-G1 Fraction (HT-29; [2]) [%] | Activity in combination with irinotecan relative to compound A, in words (HT-29; HT-29 cells, combination with irinotecan) | Sub-G1 Fraction (HT-29; Table 9, 5 μM sunitinib plus 1.18 μM Irinotecan, 7 days) [%] | Sub-G1 Fraction (HT-29; Table 9, single-agent treatment, 5 μM sunitinib, 7 days) [%] | Sub-G1 Fraction (HT-29; Table 9, 10 μM vandetanib plus 1.18 μM Irinotecan, 7 days) [%] | Sub-G1 Fraction (HT-29; Table 9, single-agent treatment, 10 μM vandetanib, 7 days) [%] |
| --- | --- | --- | --- | --- | --- | --- | --- | --- | --- | --- | --- | --- | --- |
| 129 | low nanomolar range | > 1000 | – | 1500 | – | COc1cc(C2=C(c3cn(CCCN)c4ccccc34)C(=O)NC2=O)cc(OC)c1OC.Cl [G, 3-(1-[3-Ammoniopropyl]-1H-indol-3-yl)-4-(3,4,5-trimethoxyphenyl)-maleinimide-chloride] | 4.01 ± 0.66 | 56.01 ± 0.29 | – | – | – | – | – |
| – | low nanomolar range | 554 | – | – | 195 to 196 | COc1cc(C2=C(c3cn(CCO)c4ccccc34)C(=O)NC2=O)cc(OC)c1OC [H, 3-(1-[2-Hydroxyethyl]-1H-indol-3-yl)-4-(3,4,5-trimethoxyphenyl)-maleinimide] | 8.08 ± 0.77 | 71.28 ± 3.51 | even more potent than compound A | – | – | – | – |
| – | low nanomolar range | 556 | – | – | 160 | COc1cc(C2=C(c3cn(CCCO)c4ccccc34)C(=O)NC2=O)cc(OC)c1OC [I, 3-(1-[3-Hydroxypropyl]-1H-indol-3-yl)-4-(3,4,5-trimethoxyphenyl)-maleinimide] | 11.25 ± 0.11 | 65.71 ± 0.04 | – | – | – | – | – |
| 3580 | – | > 1000 | – | 1300 | 184 to 185 | COc1cc(C2=C(c3cn(CCN(C)C)c4ccccc34)C(=O)NC2=O)cc(OC)c1OC [J, 3-{1-[2-(Dimethylamino)ethyl]-1H-indol-3-yl}-4-(3,4,5-trimethoxyphenyl)-maleinimide] | 2.50 ± 1.73 | 43.48 ± 1.87 | – | – | – | – | – |
| 3240 | – | > 10000 | – | 2830 | – | COc1cc(C2=C(c3cn(CCCN4CCN(C)CC4)c4ccccc34)C(=O)NC2=O)cc(OC)c1OC [N, 3-{1-[3-(4-Methylhexahydro-1-pyrazindiiumyl)propyl]-1H-indol-3-yl}-4-(3,4,5-trimethoxyphenyl)-maleinimide dichloride] | 3.01 ± 0.40 | 49.49 ± 1.82 | – | – | – | – | – |
